The source of these data is PubChem BioAssay (NCI).

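Where inhibition never reached the appropriate level, the endpoint shown equals the highest concentration tested. Otherwise, values were interpolated linearly from a five-concentration, 48-hour dose response in 96-well plates. GI50: concentration for 50% inhibition of growth. TGI: total growth inhibition.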 Some results are limits rather than exact numbers.

What all share (assay): NCI tumour cell line growth inhibition, 48 h
Experiment [1] deals with 786-0 renal.
In experiment [2] the test system is A549 NSCLC.
In experiment [3] the test system is BT-549 breast.
For experiment [4], the system named is HOP-92 NSCLC.
Experiment [5] relates to LOX IMVI melanoma.
Experiment [6] has as its system MOLT-4 leukemia.
For experiment [7], the system named is OVCAR-5 ovarian.
In experiment [8] the test system is RPMI-8226 leukemia.
Experiment [9] concerns SK-MEL-2 melanoma.
The test system of experiment [10] is SW-620 colon.

With `O=C(OC[C@H]1O[C@H](OC(=O)c2cc(O)c(O)c(OC(=O)c3cc(O)c(O)c(O)c3)c2)[C@H](OC(=O)c2cc(O)c(O)c(OC(=O)c3cc(O)c(O)c(O)c3)c2)[C@@H](OC(=O)c2cc(O)c(O)c(OC(=O)c3cc(O)c(O)c(O)c3)c2)[C@@H]1OC(=O)c1cc(O)c(O)c(OC(=O)c2cc(O)c(O)c(O)c2)c1)c1cc(O)c(O)c(OC(=O)c2cc(O)c(O)c(O)c2)c1`, the GI50 in [1] is 4.89 µM; in experiment [2] it was 1.4 µM; in experiment [3], 6.77 µM; in experiment [4], 10.6 µM; in experiment [5], 1.24 µM; in experiment [6], 4.32 µM. Also, the GI50 in [7] is 4.95 µM; in [8], 7.35 µM; in experiment [9], 9.02 µM; in [10], 5.48 µM. Also, the TGI was 20.2 µM in experiment [1]; over 25 µM in experiment [2]; over 25 µM in experiment [3]; over 25 µM in experiment [4]; over 25 µM in experiment [5]; over 25 µM in experiment [6]. Further, the TGI in [7], in experiment [8], in experiment [9] and in experiment [10] was over 25 µM throughout.

Consider `Cc1cnc(C(=O)Nc2nc3ccc(S(=O)(=O)Nc4ccc(C5(C(F)(F)F)CC5)cc4)cc3[nH]2)cn1`, for which the GI50 was 0.484 µM in [1]; 0.57 µM in experiment [2]; 0.965 µM in experiment [3]; 0.387 µM in experiment [4]; 0.539 µM in experiment [5]; 0.501 µM in [6]. In addition, the GI50 in [7] is 0.785 µM; in [8], 0.354 µM; in experiment [9], 0.784 µM; in experiment [10], 0.369 µM. Moreover, the TGI in [1] worked out at 6.65 µM; in [2] it was 9.66 µM; in experiment [3], 12.7 µM; in experiment [4] it was 6.46 µM; in experiment [5], 5.6 µM; in experiment [6], 14.5 µM. Moreover, the TGI in [7] turned out to be 10.9 µM; in experiment [8], 6.86 µM; in experiment [9], 20.1 µM; in [10] it was 5.92 µM.

`CCCCCCCc1cc2c3c(nc4ccccc42)C(=O)c2cccnc2-c3n1`: the GI50 in experiment [1] was 5.1 µM; in experiment [2], 2.46 µM; in experiment [3] it was 16.2 µM; in experiment [4], 6.34 µM; in experiment [5], 2.19 µM; in experiment [6], 1.54 µM. Further, the GI50 in experiment [7] is 4.09 µM; in experiment [8], 4.27 µM; in experiment [9], 12.3 µM; in [10], 1.5 µM. Moreover, the TGI is 10.5 µM in experiment [1]; 11.9 µM in experiment [2]; 33.2 µM in experiment [3]; 17 µM in experiment [4]; 7.29 µM in [5]; over 20.2 µM in experiment [6]. Besides, the TGI in [7] is 10.7 µM; in [8], 12.6 µM; in [9] it was 27.2 µM; in [10], 6.34 µM.

For the compound `O=C1CCc2c(sc3[nH]c(=S)n(Cc4ccc(Cl)cc4)c(=O)c23)C1`, the GI50 was 1.23 µM in [1]; 0.497 µM in [2]; 0.363 µM in experiment [3]; 0.196 µM in experiment [4]; 0.41 µM in experiment [5]; 1.21 µM in experiment [6]. Moreover, the GI50 in experiment [7] is 0.743 µM; in experiment [8] it was 0.383 µM; in experiment [9], 2.07 µM; in [10], 0.393 µM. The TGI in experiment [1] is over 100 µM; in experiment [2], 16.6 µM; in experiment [3], 3.03 µM; in experiment [4] it was 0.816 µM; in [5], 5.4 µM; in experiment [6] it was 17.1 µM. The results for the TGI in [7], in [9] and in [10] were 3.6 µM, 6.12 µM and over 100 µM, respectively.

`CSc1nc(SC)c2c(CO)c(Br)n(Cc3ccccc3)c2n1`: the TGI in [1] is 37.6 µM; in experiment [2] it was over 100 µM; in experiment [3], 62.4 µM; in experiment [4], 41.8 µM; in [5] it was over 100 µM; in experiment [6] it was over 100 µM. The TGI in experiment [7], in experiment [8], in [9] and in experiment [10] was over 100 µM throughout.

In the case of `CCOC(=O)c1c2c(n3ccccc13)C(=O)c1ncccc1C2=O`, the GI50 is 0.18 µM in [1]; 0.323 µM in [2]; 0.0637 µM in experiment [3]; 0.279 µM in [4]; 0.0413 µM in experiment [5]; 2.43 µM in experiment [6]. For the same compound, the GI50 in [7] is 1.8 µM; in experiment [8], 0.423 µM; in [9] it was 8.23 µM. In addition, the TGI amounted to 13.8 µM in experiment [1]; 8.01 µM in experiment [2]; 41 µM in [3]; 28.9 µM in experiment [4]; 1.78 µM in experiment [5]; 76.8 µM in experiment [6]. Further, the TGI in experiment [7] came to 27.5 µM; in [8], 19.5 µM; in [9], 90.3 µM.

`CN(C)CCCNC(=O)c1cc(NC(=O)c2cc(NC(=O)CCNS(=O)(=O)c3ccc4c(c3)C(=O)c3ccccc3C4=O)cn2C)cn1C`: the GI50 in [1], in [2], in experiment [3], in experiment [4], in [6] and in experiment [7] was over 100 µM throughout. Further, the GI50 in [8], in [9] and in experiment [10] was over 100 µM throughout. In addition, the TGI in experiment [1], in [2], in [3], in experiment [4], in experiment [6] and in experiment [7] was over 100 µM each time. Besides, the TGI in experiment [8], in [9] and in experiment [10] was over 100 µM throughout.

On to `COc1cccc(/C=N/C(/N=C/c2cccc(OC)c2O)c2cccc(OC)c2O)c1O`, for which the TGI in experiment [1] was over 100 µM; in experiment [2] it was 78.8 µM; in experiment [3] it was 71.9 µM; in experiment [4], over 100 µM; in [5], 58 µM; in experiment [7], 73.8 µM. The TGI in experiment [8] is over 100 µM; in [9], 43.2 µM; in experiment [10], over 100 µM.
